Like-named read-outs stand apart in the source and are kept apart here.
Details: for Asthenia, Grade ≥ 3 / Chills, All Grade / Chills, Grade ≥ 3 / Colitis, All Grade / Colitis, Grade ≥ 3 / Cough, All Grade / Cough, Grade ≥ 3 / Decreased appetite, All Grade / Decreased appetite, Grade ≥ 3 / Decreased neutrophil count, All Grade / Decreased neutrophil count, Grade ≥ 3 / Dehydration, All Grade / Dehydration, Grade ≥ 3 / Diarrhea, All Grade / Diarrhea, Grade ≥ 3 / Dry mouth, All Grade / Dry mouth, Grade ≥ 3 / Dry skin, All Grade / Dry skin, Grade ≥ 3 / Dysgeusia, All Grade / Dysgeusia, Grade ≥ 3 / Fatigue, All Grade / Fatigue, Grade ≥ 3 / Headache, All Grade / Headache, Grade ≥ 3 / Hyperglycemia, All Grade / Hyperglycemia, Grade ≥ 3 / Hypomagnesaemia, All Grade / Hypomagnesaemia, Grade ≥ 3 / Maculo-papular rash, All Grade / Maculo-papular rash, Grade ≥ 3 / Nausea, All Grade / Nausea, Grade ≥ 3 / Pneumonitis, All Grade / Pneumonitis, Grade ≥ 3 / Pruritus, All Grade / Pruritus, Grade ≥ 3 / Pyrexia, All Grade / Pyrexia, Grade ≥ 3 / Rash, All Grade / Rash, Grade ≥ 3 / Stomatitis, All Grade / Stomatitis, Grade ≥ 3 / Vomiting, All Grade / Vomiting, Grade ≥ 3 / Weight decreased, All Grade / Weight decreased, Grade ≥ 3: drug-related
Source text: The primary objective was to define the maximum tolerated dose (MTD). Secondary objectives included assessments for safety, tolerability, pharmacokinetic (PK) profile, and preliminary antitumor activity.
Patients had histologically documented locally advanced or metastatic solid tumors harboring an activating PIK3CA mutation or amplification, PTEN loss of function, c-MET activation, [16, 17] […] Other key inclusion criteria included age ≥ 18 years, Eastern Cooperative Oncology Group performance status (ECOG-PS) ≤2, adequate organ function, measurable or non-measurable disease as determined by Response Evaluation Criteria in Solid Tumors (RECIST) version 1.1.
The starting dose for CLR457 was 5 mg QD, based on preclinical toxicology studies in accordance with ICH guidelines, and was administered at the same time each day ±2 h in a fasted state. Various doses were planned up to 300 mg QD until MTD determination.
Safety was evaluated by incidence, nature, severity, and relatedness of adverse events (AEs), and graded according to National Cancer Institute - Common Terminology Criteria for Adverse Events (NCI CTCAE) v4.0.3. DLTs were defined as any hematologic or non-hematologic ≥ Grade 3 AE assessed as possibly related to CLR457 that occurred within the first cycle (28 days) of treatment. In addition, uncontrolled (> 14 days) Grade 2 rash or hyperglycemia were also considered DLTs. All AEs regardless of attribution were collected until 30 days following the last administration of treatment or study discontinuation/termination.
Descriptive methods were used to tabulate toxicity and response endpoints in the clinical trial. All patients treated with CLR457 were included for safety. […] Dose escalation was guided by an adaptive Bayesian logistic regression model (BLRM) incorporating the escalation with overdose control (EWOC) principle. […] The study data (including DLTs during cycle 1 and other safety and PK data) were reviewed by the sponsor and trial investigators at each dose level. […] The Full Analysis Set (FAS) included all patients who received at least one dose of CLR457. Safety set included all patients who received at least one dose of CLR457 and had at least one valid post-baseline assessment. The Dose-determining set (DDS) included all patients from the safety set who either met the following minimum exposure criterion and had sufficient safety evaluations, or experienced a DLT during Cycle 1 (the first 28 days of dosing). The Pharmacokinetic analysis set included all patients who had at least one blood sample providing evaluable PK data.

C[C@H]1OC(=O)N(c2cc(-c3cnc(N)nc3C(F)(F)F)nc(N3CCOCC3)n2)[C@H]1CO [CLR457]
1 (3.4) n (%): DLT hyperglycemia in the first cycle (All Patients, DDS N = 29)
45.5%: Rash ≥ grade 3 (100 mg cohort (n = 11))
one: DLT maculo-papular rash (40 mg)
1 patient: DLT Grade 3 hyperglycemia (100 mg)
3 (10.3) n (%): DLT maculo-papular rash in the first cycle (All Patients, DDS N = 29)
63.6%: Patients with at least one SAE irrespective of treatment (100 mg, 7 of 11 pts)
1 (50.0) n (%): Fatigue, All Grade (5 mg, N = 2)
51.6%: Patients with Grade 3/4 drug-related AEs (all patients N = 31)
two: DLT maculo-papular rash (100 mg)
none: On-study deaths attributed to the study drug (all patients)
5 (16.1) n (%): Treatment discontinuation, primary reason adverse event (All Patients, FAS N = 31)
1 (25.0) n (%): Fatigue, All Grade (20 mg, N = 4) | Rash, All Grade (20 mg, N = 4)
100%: Patients with ≥ grade 3 toxicity (100 mg cohort (n = 11))
Six: On-study deaths (all patients, 5 disease progression, 1 multi-organ failure)
1 (33.3) n (%): Fatigue, All Grade (10 mg, N = 3) | Nausea, All Grade (10 mg, N = 3)
22%: Diarrhea requiring dose interruption or reduction (4 patients)
44.44%: Maculo-papular rash requiring dose interruption or reduction (8 patients)
58.1%: AEs requiring dose interruptions or dose reductions (all patients, 18 patients)
0 n (%): DLT hyperglycemia in the first cycle (5 mg, DDS N = 2) | DLT maculo-papular rash in the first cycle (5 mg, DDS N = 2) | Total DLTs in the first cycle (5 mg, DDS N = 2) | Treatment discontinuation, primary reason adverse event (5 mg, FAS N = 2) | DLT hyperglycemia in the first cycle (10 mg, DDS N = 3) | DLT maculo-papular rash in the first cycle (10 mg, DDS N = 3) | Total DLTs in the first cycle (10 mg, DDS N = 3) | Treatment discontinuation, primary reason adverse event (10 mg, FAS N = 3) | DLT hyperglycemia in the first cycle (20 mg, DDS N = 4) | DLT maculo-papular rash in the first cycle (20 mg, DDS N = 4) | Total DLTs in the first cycle (20 mg, DDS N = 4) | Treatment discontinuation, primary reason adverse event (20 mg, FAS N = 4) | DLT hyperglycemia in the first cycle (40 mg, DDS N = 5) | DLT hyperglycemia in the first cycle (70 mg, DDS N = 6) | DLT maculo-papular rash in the first cycle (70 mg, DDS N = 6) | Total DLTs in the first cycle (70 mg, DDS N = 6) | Treatment discontinuation, primary reason adverse event (70 mg, FAS N = 6) | Asthenia, Grade ≥ 3 (5 mg, N = 2) | Chills, All Grade (5 mg, N = 2) | Chills, Grade ≥ 3 (5 mg, N = 2) | Colitis, All Grade (5 mg, N = 2) | Colitis, Grade ≥ 3 (5 mg, N = 2) | Cough, All Grade (5 mg, N = 2) | Cough, Grade ≥ 3 (5 mg, N = 2) | Decreased appetite, All Grade (5 mg, N = 2) | Decreased appetite, Grade ≥ 3 (5 mg, N = 2) | Decreased neutrophil count, All Grade (5 mg, N = 2) | Decreased neutrophil count, Grade ≥ 3 (5 mg, N = 2) | Dehydration, All Grade (5 mg, N = 2) | Dehydration, Grade ≥ 3 (5 mg, N = 2) | Diarrhea, All Grade (5 mg, N = 2) | Diarrhea, Grade ≥ 3 (5 mg, N = 2) | Dry mouth, All Grade (5 mg, N = 2) | Dry mouth, Grade ≥ 3 (5 mg, N = 2) | Dry skin, All Grade (5 mg, N = 2) | Dry skin, Grade ≥ 3 (5 mg, N = 2) | Dysgeusia, All Grade (5 mg, N = 2) | Dysgeusia, Grade ≥ 3 (5 mg, N = 2) | Fatigue, Grade ≥ 3 (5 mg, N = 2) | Headache, All Grade (5 mg, N = 2) | Headache, Grade ≥ 3 (5 mg, N = 2) | Hyperglycemia, All Grade (5 mg, N = 2) | Hyperglycemia, Grade ≥ 3 (5 mg, N = 2) | Hypomagnesaemia, All Grade (5 mg, N = 2) | Hypomagnesaemia, Grade ≥ 3 (5 mg, N = 2) | Maculo-papular rash, All Grade (5 mg, N = 2) | Maculo-papular rash, Grade ≥ 3 (5 mg, N = 2) | Nausea, All Grade (5 mg, N = 2) | Nausea, Grade ≥ 3 (5 mg, N = 2) | Pneumonitis, All Grade (5 mg, N = 2) | Pneumonitis, Grade ≥ 3 (5 mg, N = 2) | Pruritus, All Grade (5 mg, N = 2) | Pruritus, Grade ≥ 3 (5 mg, N = 2) | Pyrexia, All Grade (5 mg, N = 2) | Pyrexia, Grade ≥ 3 (5 mg, N = 2) | Rash, All Grade (5 mg, N = 2) | Rash, Grade ≥ 3 (5 mg, N = 2) | Stomatitis, All Grade (5 mg, N = 2) | Stomatitis, Grade ≥ 3 (5 mg, N = 2) | Vomiting, All Grade (5 mg, N = 2) | Vomiting, Grade ≥ 3 (5 mg, N = 2) | Weight decreased, All Grade (5 mg, N = 2) | Weight decreased, Grade ≥ 3 (5 mg, N = 2) | Asthenia, Grade ≥ 3 (10 mg, N = 3) | Chills, All Grade (10 mg, N = 3) | Chills, Grade ≥ 3 (10 mg, N = 3) | Colitis, All Grade (10 mg, N = 3) | Colitis, Grade ≥ 3 (10 mg, N = 3) | Cough, All Grade (10 mg, N = 3) | Cough, Grade ≥ 3 (10 mg, N = 3) | Decreased appetite, All Grade (10 mg, N = 3) | Decreased appetite, Grade ≥ 3 (10 mg, N = 3) | Decreased neutrophil count, All Grade (10 mg, N = 3) | Decreased neutrophil count, Grade ≥ 3 (10 mg, N = 3) | Dehydration, All Grade (10 mg, N = 3) | Dehydration, Grade ≥ 3 (10 mg, N = 3) | Diarrhea, All Grade (10 mg, N = 3) | Diarrhea, Grade ≥ 3 (10 mg, N = 3) | Dry mouth, All Grade (10 mg, N = 3) | Dry mouth, Grade ≥ 3 (10 mg, N = 3) | Dry skin, All Grade (10 mg, N = 3) | Dry skin, Grade ≥ 3 (10 mg, N = 3) | Dysgeusia, All Grade (10 mg, N = 3) | Dysgeusia, Grade ≥ 3 (10 mg, N = 3) | Fatigue, Grade ≥ 3 (10 mg, N = 3) | Headache, All Grade (10 mg, N = 3) | Headache, Grade ≥ 3 (10 mg, N = 3) | Hyperglycemia, All Grade (10 mg, N = 3) | Hyperglycemia, Grade ≥ 3 (10 mg, N = 3) | Hypomagnesaemia, All Grade (10 mg, N = 3) | Hypomagnesaemia, Grade ≥ 3 (10 mg, N = 3) | Maculo-papular rash, All Grade (10 mg, N = 3) | Maculo-papular rash, Grade ≥ 3 (10 mg, N = 3) | Nausea, Grade ≥ 3 (10 mg, N = 3) | Pneumonitis, All Grade (10 mg, N = 3) | Pneumonitis, Grade ≥ 3 (10 mg, N = 3) | Pruritus, All Grade (10 mg, N = 3) | Pruritus, Grade ≥ 3 (10 mg, N = 3) | Pyrexia, All Grade (10 mg, N = 3) | Pyrexia, Grade ≥ 3 (10 mg, N = 3) | Rash, All Grade (10 mg, N = 3) | Rash, Grade ≥ 3 (10 mg, N = 3) | Stomatitis, All Grade (10 mg, N = 3) | Stomatitis, Grade ≥ 3 (10 mg, N = 3) | Vomiting, All Grade (10 mg, N = 3) | Vomiting, Grade ≥ 3 (10 mg, N = 3) | Weight decreased, All Grade (10 mg, N = 3) | Weight decreased, Grade ≥ 3 (10 mg, N = 3) | Asthenia, Grade ≥ 3 (20 mg, N = 4) | Chills, All Grade (20 mg, N = 4) | Chills, Grade ≥ 3 (20 mg, N = 4) | Colitis, All Grade (20 mg, N = 4) | Colitis, Grade ≥ 3 (20 mg, N = 4) | Cough, All Grade (20 mg, N = 4) | Cough, Grade ≥ 3 (20 mg, N = 4) | Decreased appetite, All Grade (20 mg, N = 4) | Decreased appetite, Grade ≥ 3 (20 mg, N = 4) | Decreased neutrophil count, All Grade (20 mg, N = 4) | Decreased neutrophil count, Grade ≥ 3 (20 mg, N = 4) | Dehydration, All Grade (20 mg, N = 4) | Dehydration, Grade ≥ 3 (20 mg, N = 4) | Diarrhea, All Grade (20 mg, N = 4) | Diarrhea, Grade ≥ 3 (20 mg, N = 4) | Dry mouth, All Grade (20 mg, N = 4) | Dry mouth, Grade ≥ 3 (20 mg, N = 4) | Dry skin, All Grade (20 mg, N = 4) | Dry skin, Grade ≥ 3 (20 mg, N = 4) | Dysgeusia, All Grade (20 mg, N = 4) | Dysgeusia, Grade ≥ 3 (20 mg, N = 4) | Fatigue, Grade ≥ 3 (20 mg, N = 4) | Headache, All Grade (20 mg, N = 4) | Headache, Grade ≥ 3 (20 mg, N = 4) | Hyperglycemia, All Grade (20 mg, N = 4) | Hyperglycemia, Grade ≥ 3 (20 mg, N = 4) | Hypomagnesaemia, All Grade (20 mg, N = 4) | Hypomagnesaemia, Grade ≥ 3 (20 mg, N = 4) | Maculo-papular rash, All Grade (20 mg, N = 4) | Maculo-papular rash, Grade ≥ 3 (20 mg, N = 4) | Nausea, All Grade (20 mg, N = 4) | Nausea, Grade ≥ 3 (20 mg, N = 4) | Pneumonitis, All Grade (20 mg, N = 4) | Pneumonitis, Grade ≥ 3 (20 mg, N = 4) | Pruritus, All Grade (20 mg, N = 4) | Pruritus, Grade ≥ 3 (20 mg, N = 4) | Pyrexia, All Grade (20 mg, N = 4) | Pyrexia, Grade ≥ 3 (20 mg, N = 4) | Rash, Grade ≥ 3 (20 mg, N = 4) | Stomatitis, All Grade (20 mg, N = 4) | Stomatitis, Grade ≥ 3 (20 mg, N = 4) | Vomiting, All Grade (20 mg, N = 4) | Vomiting, Grade ≥ 3 (20 mg, N = 4) | Weight decreased, All Grade (20 mg, N = 4) | Weight decreased, Grade ≥ 3 (20 mg, N = 4) | Asthenia, Grade ≥ 3 (40 mg, N = 5) | Chills, All Grade (40 mg, N = 5) | Chills, Grade ≥ 3 (40 mg, N = 5) | Colitis, All Grade (40 mg, N = 5) | Colitis, Grade ≥ 3 (40 mg, N = 5) | Cough, All Grade (40 mg, N = 5) | Cough, Grade ≥ 3 (40 mg, N = 5) | Decreased appetite, Grade ≥ 3 (40 mg, N = 5)
1 (11.1) n (%): DLT hyperglycemia in the first cycle (100 mg, DDS N = 9)
25.8%: Maculo-papular rash, grade 3/4 (all patients N = 31)
3 (33.3) n (%): Total DLTs in the first cycle (100 mg, DDS N = 9)
3 patients: DLT maculo-papular rash (all doses)
4 (36.4) n (%): Treatment discontinuation, primary reason adverse event (100 mg, FAS N = 11)
2 (22.2) n (%): DLT maculo-papular rash in the first cycle (100 mg, DDS N = 9)
1 (20.0) n (%): DLT maculo-papular rash in the first cycle (40 mg, DDS N = 5) | Total DLTs in the first cycle (40 mg, DDS N = 5) | Treatment discontinuation, primary reason adverse event (40 mg, FAS N = 5) | Decreased appetite, All Grade (40 mg, N = 5)
27.3%: Patients with a DLT in the 100 mg cohort (100 mg, 3 of 11 patients)
4 (13.8) n (%): Total DLTs in the first cycle (All Patients, DDS N = 29)

From PMC6440935, “Characterization and phase I study of CLR457, an orally bioavailable pan-class I PI3-kinase inhibitor” (Investigational New Drugs, 2018)
